From patent US8383608B2, “Imidazolidine compounds as androgen receptor modulators” (Dart Therapeutics LLC, priority 2008, dated 2013)
Where two headings read alike, the source gives them in different places.

How the values were obtained:
[1] = test system: castrated immature young rats; test: Adapted model of Hershberger's test; type: in vivo, Sprague Dawley rats; conditions: Rattus norvegicus, po, 96 h, ORX control = 0%, SHAM control = 100%, per os daily for 4 days, dose tested 10 mg/kg
Protocol: The selective modulating activity of the androgen receptor is tested in a model of castrated immature young rats. This model, which is widely recognised for evaluating the anabolic effects of androgen compounds on the muscles and on the prostate, has been described by Hershberger et al. 1953 Proc. Soc. Expt. Biol. Med. 83:175.
The method is based on the measurement of the well-known effects of androgens on the growth of the muscles and the accessory male sex organs in animals, and also in men. The consequences of castration appear in the form of a rapid involution and atrophy of the prostate and the seminal vesicles and of the anus-lifting muscle (levator ani). This effect may be completely compensated by an exogeneous administration of androgen, in particular of testosterone. The model is thus used to determine the capacity of the tested molecules to maintain the weight of the accessory sex and muscle organs in immature castrated rats, and therefore their androgenic efficacy.
Immature young Sprague Dawley rats (4 to 5 weeks old) weighing approximately 140-160 g (Charles River, Les Oncins, FRANCE) are distributed randomly in various groups and are kept in an environment at 22±2° C. with an alternating day/night cycle of 12 hours and ad libitum access to food and drink.
On day 0 (seven days before commencement of the first treatment) the rats are weighed individually then anaesthetised with an intraperitoneal dose of Ketamine/xylazine (85/15 mg/kg, approximately 2 ml/kg). Each animal is then placed on a sterile field and the abdomen and the scrotum are disinfected with Betadine and 70% alcohol. In the case of the orchidectomised control animals (ORX), the testicles are removed via an incision in the middle of the scrotum. A sterile suture is then made to ligature the supra-testicular portion of the tissue prior to surgical section of each testicle. The groups of animals to be treated by the tested compounds are operated on in an identical manner. In the case of the intact control animals (SHAM), the testicles are similarly extracted and reintroduced delicately to their original location. The site of surgical intervention is then sutured using sterile suture thread, and the site is disinfected again by application of Betadine. Each animal is then kept under a sterile pad until it awoke, before being returned to its cage. The animals are kept in an environment at 22±2° C. with an alternating day/night cycle of 12 hours and ad libitum access to food and drink. The animals are treated with the molecules to be tested from post-surgery day 7 and until day 10 preceding sacrifice (day 11).
The rats are split into groups and treated daily from day 7 to day 10 under the conditions defined below: • 1. SHAM control group: Vehicle (PEG400/DMSO/water; 79/1/20) administered per os. • 2. ORX control group: Vehicle (PEG400/DMSO/water; 79/1/20) administered per os. • 3. Treated ORX group: The tested compounds are administered individually per os in suspension in the vehicle described above, in a dose of 10 mg/kg.
After treatment for 4 successive days, the animals are decapitated using a guillotine. The levator ani and the ventral prostate are removed and weighed individually. For comparing inter-experimental data, the weight of each organ is standardised and expressed in milligrammes per 100 g of the weight of the animal (W). For each organ, the average of the standardised weights of the ORX control group is fixed by definition at 0% and the average of the standardised weights of the SHAM control group is fixed by definition at 100%. The efficacy of each product is expressed as a percentage and calculated using the following formula: (Wtreated−WORX)/(WSHAM−WORX)×100
A subsequent ANOVA test is used for statistical analysis to identify the differences between groups.

[2] = target: T1, human androgen receptor (hAR) (Homo sapiens, UniProt P10275); test: Functional response (transactivation) test in HALP2 cells (HeLa stably expressing hAR and ARE-luciferase reporter); type: cell-based; conditions: HALP2 cells; for Emax: HeLa, maximal activation by the compound compared with DHT alone (100%), read-out: % effect relative to DHT (100%); for EC50: agonism: concentration inducing 50% of the maximum agonistic effect of the tested compound, 24 hours, read-out: EC50
T1 construct: expressed in transfected cells
T1 sequence (P10275 1-920): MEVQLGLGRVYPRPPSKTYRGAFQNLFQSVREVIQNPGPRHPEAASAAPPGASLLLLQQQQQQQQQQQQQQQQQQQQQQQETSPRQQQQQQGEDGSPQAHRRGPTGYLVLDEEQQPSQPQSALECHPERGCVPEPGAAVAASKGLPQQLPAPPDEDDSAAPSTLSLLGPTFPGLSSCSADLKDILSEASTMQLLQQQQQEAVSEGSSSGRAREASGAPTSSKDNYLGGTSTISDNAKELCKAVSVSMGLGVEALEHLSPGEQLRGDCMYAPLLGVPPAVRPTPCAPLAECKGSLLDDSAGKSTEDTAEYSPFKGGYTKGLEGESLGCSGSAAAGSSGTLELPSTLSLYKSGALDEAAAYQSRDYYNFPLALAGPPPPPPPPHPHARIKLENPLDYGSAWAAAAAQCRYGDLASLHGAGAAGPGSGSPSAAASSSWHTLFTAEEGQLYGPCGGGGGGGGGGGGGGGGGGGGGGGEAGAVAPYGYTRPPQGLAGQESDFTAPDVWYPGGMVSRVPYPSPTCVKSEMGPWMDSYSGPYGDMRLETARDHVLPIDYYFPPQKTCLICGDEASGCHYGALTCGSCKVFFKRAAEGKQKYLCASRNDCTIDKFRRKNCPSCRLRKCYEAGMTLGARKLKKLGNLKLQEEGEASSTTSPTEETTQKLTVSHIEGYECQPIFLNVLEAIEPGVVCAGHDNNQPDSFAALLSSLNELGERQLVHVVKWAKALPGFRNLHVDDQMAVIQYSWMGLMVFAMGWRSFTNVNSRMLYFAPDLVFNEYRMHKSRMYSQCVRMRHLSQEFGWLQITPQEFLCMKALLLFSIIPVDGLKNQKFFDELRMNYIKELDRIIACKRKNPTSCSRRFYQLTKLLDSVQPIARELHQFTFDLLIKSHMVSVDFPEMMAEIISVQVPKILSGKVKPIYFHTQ
Excerpt: This test constitutes a method of identifying pure or partial agonists which mimic the effects of natural hormones, such as DHT (dihydrotestosterone) in the present case or, on the other hand, antagonists which inhibit them.
For this transactivation test, plasmids encoding a reporter gene and the human androgen receptor (hAR) are introduced together by transfection into the HeLa cell line. The reporter plasmid contains luciferase cDNA under the control of the AREs contained in the promoter sequences of the probasin gene (3xpbAREminicoll-luciferase/pGL3-puro). The expression of the reporter gene constitutes an indication of the transcriptional activity of hAR. It also encodes a protein allowing the cells expressing it to resist a treatment with puromycin. The plasmid encoding hAR contains the cDNA of hAR under the control of the Cytomegalovirus (CMV) promoter. It also encodes a protein allowing the cells expressing it to resist a treatment with neomycin. The treatment of cells with increasing amounts of potentially agonistic compounds will increase the expression of the reporter gene. To detect antagonists, on the other hand, increasing doses of test compounds are tested in the presence of […] of DHT. The expression of the reporter gene, which is constant for each dose of DHT, decreases when the concentration of the test compounds increases.
The functional response test is conducted on 96-well plates. The HALP2 cells are seeded (20,000 cells per well) in culture medium (DMEM with phenol red, 1% de Pen-Strep, 1% of non-essential amino acids, 10% of fetal bovine serum, 400 μg/mL Geneticin and 0.150 puromycin) on day 1. After 24 hours incubating at 37° C., 5% CO2, high humidity (day 2) the medium is removed and refreshed with test medium (DMEM without phenol red supplemented, 1% de Pen-Strep, 1% of non-essential amino acids and 5% of desteroidised foetal bovine serum). After another 24 hours incubating at 37° C., 5% CO2, high humidity (day 3), the medium is renewed once more before the phase of stimulation.
The cells are placed in contact with the compounds for 24 hours at 37° C., 5% CO2, high humidity. On day 4 the medium is then removed and the luciferase activity reading reagent is placed in contact with the cells in accordance with the manufacturer's instructions (SteadyLite, Perkin-Elmer). The luminescence produced is detected on an Envision reader (Perkin-Elmer). […]
The determination of the relative agonism/antagonism of a compound is obtained by comparing the maximal activation obtained with said compound and the activation obtained with DHT alone (100%).

[3] = levator ani weight, read-out: Anabolic activity %
[4] = ventral prostate weight, read-out: Androgenic activity % (Prostate)

SMILES | response vs control in vivo at 10 mg/kg [1, 3] [%] | response vs control in vivo at 10 mg/kg [1, 4] [%] | Emax [2] [%] | EC50 [2] [nM]
CN1C(=O)N(c2ccc(C#N)c(C(F)(F)F)c2)C(=O)C1(CO)c1cccc(Cl)c1 (centres unmarked) [Example 9] | 50 to 75 | 0.5 to 25 | 41 to 50 | 0.01 to 10
CN1C(=O)N(c2ccc(C#N)c(C(F)(F)F)c2)C(=O)C1(CO)c1ccc(C#N)cc1 (centres unmarked) [Example 13, 4-[4-(4-Cyanophenyl)-2,5-dioxo-4-hydroxymethyl-3-methylimidazolidin-1-yl)-2-trifluoromethylbenzonitrile] | 0.5 to 25 | 0.5 to 25 | 0 to 5 | –
CN1C(=O)N(c2ccc(C#N)c(C(F)(F)F)c2)C(=O)C1(CO)c1cccc(C#N)c1 (centres unmarked) [Example 14, 4-[4-(3-Cyanophenyl)-2,5-dioxo-4-hydroxymethyl-3-methylimidazolidin-1-yl)-2-trifluoromethylbenzonitrile] | 75 to 100 | 25 to 50 | 21 to 40 | 101 to 500
CN1C(=O)N(c2ccc(C#N)c(C(F)(F)F)c2)C(=O)C1(CO)c1cccc(C(F)(F)F)c1 (centres unmarked) [Example 15, 4-[2,5-Dioxo-4-hydroxymethyl-3-methyl-4-(3-trifluoromethylphenyl)imidazolidin-1-yl)-2-trifluoromethylbenzonitrile] | 25 to 50 | 0 | 21 to 40 | 101 to 500
CN1C(=O)N(c2ccc(Cl)c(Cl)c2)C(=O)C1(CO)c1ccccc1 (centres unmarked) [Example 16, 1-(3,4-Dichlorophenyl)-4-hydroxymethyl-3-methyl-4-phenylimidazolidine-2,5-dione] | 75 to 100 | 0.5 to 25 | 6 to 20 | 101 to 500
CC(C)N1C(=O)N(c2ccc(C#N)c(C(F)(F)F)c2)C(=O)C1(CO)c1ccccc1 (centres unmarked) [Example 17, 4-[2,5-Dioxo-4-(hydroxymethyl)-3-(1-methylethyl)-4-phenylimidazolidin-1-yl]-2-trifluoromethylbenzonitrile] | 75 to 100 | 50 to 75 | 41 to 50 | 101 to 500
N#CCN1C(=O)N(c2ccc(C#N)c(C(F)(F)F)c2)C(=O)C1(CO)c1ccccc1 (centres unmarked) [Example 18, 4-[3-Cyanomethyl-2,5-dioxo-4-(hydroxymethyl)-4-phenylimidazolidin-1-yl]-2-trifluoromethylbenzonitrile] | 75 to 100 | 0.5 to 25 | 6 to 20 | 501 to 1000
C#CCN1C(=O)N(c2ccc(C#N)c(C(F)(F)F)c2)C(=O)C1(CO)c1ccccc1 (centres unmarked) [Example 19] | 75 to 100 | 25 to 50 | 6 to 20 | 101 to 500
Cc1cccc(C2(CO)C(=O)N(c3ccc(C#N)c(C(F)(F)F)c3)C(=O)N2C)c1 (centres unmarked) [Example 21, 4-[2,5-Dioxo-4-hydroxymethyl-3-methyl-4-(3-methylphenyl)imidazolidin-1-yl)-2-trifluoromethylbenzonitrile] | 0.5 to 25 | 0 | 6 to 20 | 501 to 1000
